A value given as a limit tells only on which side of the number the result lay.

The test system of data set [1] is TNFα release in d-U937 cells. In words: LPS-induced TNFα release in d-U937 cells. Note: relative to 10 µg/mL BIRB-796. Format: cell-based. To be noted: Homo sapiens, dU937; read-out: LPS Induced Release TNFα REC50 (dU937). In a few lines: (§1)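 U937 human monocytic cells were differentiated to macrophage-like cells with PMA (100-200 ng/mL) for 48 to 72 h, pre-treated with compound for 2 h, then challenged with E. coli O111:B4 LPS (0.1 μg/mL) for 4 h. TNFα and IL-8 in supernatants were measured by sandwich ELISA; REC50 came from concentration-response curves.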

The target in data set [2] is T1, p38 MAPKα isoform (MAPK14) (Homo sapiens, UniProt Q16539).
T1 construct: purchased Life Technologies
T1 sequence (Q16539 whole entry, canonical isoform): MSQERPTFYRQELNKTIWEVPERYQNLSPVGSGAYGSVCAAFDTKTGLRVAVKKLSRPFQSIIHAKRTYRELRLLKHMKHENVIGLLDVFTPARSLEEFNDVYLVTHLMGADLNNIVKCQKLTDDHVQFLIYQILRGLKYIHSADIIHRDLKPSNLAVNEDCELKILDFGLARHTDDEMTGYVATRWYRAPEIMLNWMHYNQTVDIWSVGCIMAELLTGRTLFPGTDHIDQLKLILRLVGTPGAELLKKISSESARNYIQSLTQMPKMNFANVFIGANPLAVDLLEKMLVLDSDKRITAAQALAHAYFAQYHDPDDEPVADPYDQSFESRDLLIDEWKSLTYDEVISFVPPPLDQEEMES
Description: p38 MAPKα enzyme inhibition (Z-LYTE FRET). Format: biochemical. Particulars: Table 2A; read-out: IC50 Values for Enzyme Inhibition p38 MAPKα. The essentials: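 Recombinant human MAPK14 (40 ng/mL stock) was preincubated 2 h at RT with compound (stock dilutions 0.0012-40 μg/mL). The Z-LYTE FRET read-out used a MAPKAP-K2-derived peptide, and protease development for 1 h cleaved only non-phosphorylated peptide. Phosphorylation was calculated from the coumarin/fluorescein emission ratio.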

Another data set deals with T2, GSK 3α enzyme isoform (Homo sapiens, UniProt P49840).
T2 construct: purchased Life Technologies
T2 sequence (P49840 whole entry, canonical isoform): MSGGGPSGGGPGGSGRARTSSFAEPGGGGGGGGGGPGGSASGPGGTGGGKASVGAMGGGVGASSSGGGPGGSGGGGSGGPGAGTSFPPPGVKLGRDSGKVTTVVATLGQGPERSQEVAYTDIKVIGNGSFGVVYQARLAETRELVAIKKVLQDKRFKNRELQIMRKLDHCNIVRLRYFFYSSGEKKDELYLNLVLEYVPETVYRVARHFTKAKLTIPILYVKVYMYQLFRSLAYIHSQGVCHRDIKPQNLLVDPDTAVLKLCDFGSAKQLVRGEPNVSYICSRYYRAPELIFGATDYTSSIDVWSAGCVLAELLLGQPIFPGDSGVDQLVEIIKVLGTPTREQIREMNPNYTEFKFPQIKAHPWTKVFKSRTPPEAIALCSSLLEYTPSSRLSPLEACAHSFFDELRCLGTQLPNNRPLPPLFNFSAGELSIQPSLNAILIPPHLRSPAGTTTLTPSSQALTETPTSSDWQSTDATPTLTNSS
Description: GSK 3α enzyme inhibition (Z-LYTE FRET). Format: biochemical. Particulars: Table 2A; read-out: IC50 Values for Enzyme Inhibition GSK3α. In a few lines: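 Z-LYTE FRET kinase assay: GSK3α protein (500 ng/mL stock) preincubated with compound (0.0012–40 μg/mL stocks) for 2 h at RT. FRET peptide (8 μM stock) and ATP (40 μM stock) added for 1 h at RT, then protease development for 1 h. Phosphorylation taken from the coumarin/fluorescein emission ratio.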

For another data set, the target named is T3, c-Src (Homo sapiens, UniProt P12931).
T3 construct: purchased Life Technologies
T3 sequence (P12931 whole entry): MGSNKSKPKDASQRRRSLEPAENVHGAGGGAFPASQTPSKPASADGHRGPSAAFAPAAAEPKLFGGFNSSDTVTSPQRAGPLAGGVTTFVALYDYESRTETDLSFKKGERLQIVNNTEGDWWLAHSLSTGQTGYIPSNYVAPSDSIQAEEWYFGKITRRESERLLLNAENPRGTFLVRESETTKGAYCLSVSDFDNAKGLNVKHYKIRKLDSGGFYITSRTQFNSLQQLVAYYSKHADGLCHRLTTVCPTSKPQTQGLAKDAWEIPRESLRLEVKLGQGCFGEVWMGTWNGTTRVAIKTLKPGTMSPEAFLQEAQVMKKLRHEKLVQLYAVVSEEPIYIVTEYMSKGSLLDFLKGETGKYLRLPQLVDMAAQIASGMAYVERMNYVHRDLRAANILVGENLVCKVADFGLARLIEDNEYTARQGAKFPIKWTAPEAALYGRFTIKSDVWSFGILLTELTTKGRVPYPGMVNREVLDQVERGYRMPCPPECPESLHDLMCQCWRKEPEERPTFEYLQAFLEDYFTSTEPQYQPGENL
Description: c-Src enzyme inhibition (Z-LYTE FRET). Type of data set: biochemical. Particulars: Table 2A. In a few lines: (§2)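 Enzyme (1000, 1400 or 2000 ng/mL stocks for c-Src, Hck, Syk respectively) preincubated 2 h at RT with compound (0.0012–40 μg/mL series), then FRET peptide plus ATP (800 μM c-Src; 60 μM Hck, Syk stocks) for 1 h. Protease development 1 h; phosphorylation from coumarin/fluorescein emission ratio.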

A further data set addresses T4, Syk (Homo sapiens, UniProt P43405).
T4 construct: purchased Life Technologies
Description: Syk enzyme inhibition (Z-LYTE FRET). To be noted: Table 2A. Type of data set: biochemical. The essentials: as §2

Another data set concerns d-U937 cells. Description: Cell viability: MTT assay in differentiated U937 cells. Particulars: 10 μg/mL. Type of data set: cell-based, human. The essentials: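 Differentiated U937 cells exposed to compound at a final 10 μg/mL, either 4 h in 5% FCS RPMI1640 or 24 h in 10% FCS RPMI1640. MTT added for 1 h, formazan dissolved in DMSO, absorbance read at 550 nm; % viability loss relative to 0.5% DMSO vehicle, with increases shown as negative values.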

Data set [3] deals with IL-8 release in d-U937 cells. In words: LPS-induced IL-8 release in d-U937 cells. Type of data set: cell-based. To be noted: Homo sapiens, dU937, LPS 0.1 μg/mL 4 h. The essentials:
as §1

The term IC50 denotes the concentration that gives 50% inhibition. `Cc1ccc(-n2nc(C(C)(C)C)cc2NC(=O)Nc2ccc(OCc3ccnc(Nc4cncc(C5CCC5)n4)c3)c3ccccc23)cc1` [Example 47]: in data set [1], the EC50 worked out at 5.8 nM. Further, the IC50 turned out to be 87 nM in data set [2]; 2.8 µM at GSK 3α enzyme isoform; 402 nM at c-Src; 4.15 µM against Syk; 15.6 nM in data set [3]. The “MTT Assay Cell viability at time point indicated in d-U937 Cells, 4 h” value (“MTT Assay Cell viability … in d-U937 Cells, 4 h” for short) with d-U937 cells is “− (−ve and +ve indicate the value is below and above, respectively, the no significant effect threshold defined as 30% inhibition at 10 μg/mL at the time point indicated)”. For the same molecule, in the data set on d-U937 cells, the “MTT Assay Cell viability at time point indicated in d-U937 Cells, 24 h” value (shortened to “MTT Assay Cell viability … 24 h”) was “− (−ve and +ve indicate the value is below and above, respectively, the no significant effect threshold defined as 30% inhibition at 10 μg/mL at the time point indicated)”.
Consider `Cc1ccc(-n2nc(C(C)(C)C)cc2NC(=O)Nc2ccc(OCc3ccnc(Nc4cncc(C5CCCC5)n4)c3)c3ccccc23)cc1` [Example 48], for which the EC50 in data set [1] amounted to 0.3 nM. Also, the IC50 in data set [2] is 91 nM; at GSK 3α enzyme isoform, 4.21 µM; on c-Src, 459 nM; at Syk, above 15 µM; in data set [3], 16.7 nM. In addition, in the data set with d-U937 cells, the “MTT Assay Cell viability … in d-U937 Cells, 4 h” value is “− (−ve and +ve indicate the value is below and above, respectively, the no significant effect threshold defined as 30% inhibition at 10 μg/mL at the time point indicated)”. Besides, the “MTT Assay Cell viability … 24 h” value with d-U937 cells is “− (−ve and +ve indicate the value is below and above, respectively, the no significant effect threshold defined as 30% inhibition at 10 μg/mL at the time point indicated)”.
In the case of `CC(C)(C)c1cc(NC(=O)Nc2ccc(OCc3ccnc(Nc4cnccn4)c3)c3ccccc23)n(-c2cccc(F)c2)n1` [Example 49], in data set [1], the EC50 came out at 2.3 nM. For the same molecule, the IC50 in data set [2] amounted to 11 nM; on GSK 3α enzyme isoform, 4.48 µM; on c-Src it was 556 nM; on Syk, 9.25 µM; in data set [3], 24.3 nM. Further, the “MTT Assay Cell viability … in d-U937 Cells, 4 h” value in the data set with d-U937 cells was “− (−ve and +ve indicate the value is below and above, respectively, the no significant effect threshold defined as 30% inhibition at 10 μg/mL at the time point indicated)”. For the same molecule, the “MTT Assay Cell viability … 24 h” value in the data set with d-U937 cells was “− (−ve and +ve indicate the value is below and above, respectively, the no significant effect threshold defined as 30% inhibition at 10 μg/mL at the time point indicated)”.
Turning to `CC(C)(C)c1cc(NC(=O)Nc2ccc(OCc3ccnc(Nc4cnccn4)c3)c3ccccc23)n(-c2cccc(Cl)c2)n1` [Example 50], in data set [1], the EC50 came out at 7.1 nM. Besides, the IC50 was found to be 22 nM in data set [2]; 7.08 µM on GSK 3α enzyme isoform; 966 nM on c-Src; 5.82 µM on Syk; 30.3 nM in data set [3]. Moreover, in the data set with d-U937 cells, the “MTT Assay Cell viability … in d-U937 Cells, 4 h” value is “− (−ve and +ve indicate the value is below and above, respectively, the no significant effect threshold defined as 30% inhibition at 10 μg/mL at the time point indicated)”. Further, the “MTT Assay Cell viability … 24 h” value in the data set on d-U937 cells was “− (−ve and +ve indicate the value is below and above, respectively, the no significant effect threshold defined as 30% inhibition at 10 μg/mL at the time point indicated)”.
Regarding `Cc1ccc(-n2nc(C(C)(C)C)cc2NC(=O)Nc2ccc(OCc3ccnc(Nc4cnccn4)c3)c3ccccc23)cc1C` [Example 51], in data set [1], the EC50 amounted to 2.2 nM. For the same molecule, the concentration for half-maximal inhibition (IC50) was 14 nM in data set [2]; above 16.3 µM at GSK 3α enzyme isoform; 160 nM against c-Src; above 16.3 µM at Syk; 25.7 nM in data set [3]. Moreover, the “MTT Assay Cell viability … in d-U937 Cells, 4 h” value in the data set on d-U937 cells was “− (−ve and +ve indicate the value is below and above, respectively, the no significant effect threshold defined as 30% inhibition at 10 μg/mL at the time point indicated)”. The “MTT Assay Cell viability … 24 h” value with d-U937 cells was “− (−ve and +ve indicate the value is below and above, respectively, the no significant effect threshold defined as 30% inhibition at 10 μg/mL at the time point indicated)”.
With `Cc1ccc(-n2nc(C(C)(C)C)cc2NC(=O)Nc2ccc(OCc3ccnc(Nc4cnccn4)c3)c3ccccc23)cc1C(F)(F)F` [Example 52], the EC50 in data set [1] came to 18.7 nM. Further, the half-inhibitory concentration (IC50) in data set [2] is 116 nM; at GSK 3α enzyme isoform, above 15 µM; at c-Src it was above 15000 nM; against Syk, above 15 µM; in data set [3], above 1500 nM. Further, in the data set with d-U937 cells, the “MTT Assay Cell viability … in d-U937 Cells, 4 h” value was “− (−ve and +ve indicate the value is below and above, respectively, the no significant effect threshold defined as 30% inhibition at 10 μg/mL at the time point indicated)”. Also, the “MTT Assay Cell viability … 24 h” value in the data set on d-U937 cells is “− (−ve and +ve indicate the value is below and above, respectively, the no significant effect threshold defined as 30% inhibition at 10 μg/mL at the time point indicated)”.

Values taken from patent US11142515B2, “Pyrazolyl-ureas as kinase inhibitors” (RESPIVERT LIMITED, priority 2014, dated 2021).
